The source of these data is patent EP3351262A1, “CURAGLUTIDE FOR IN TREATMENT OF PREDIABETES, DIABETES, OBESITY AND METABOLIC DISEASES ASSOCIATED THERETO” (Istanbul Universitesi Rektorlugu, priority 2016, dated 2018).

One may read the viability as the share of living cells, or the viability signal relative to a control.

Read-outs that look alike come from different tables or passages of the source.

The subject of data set [1] is INS-1 cells. In kind it is cell-based, rat. The note with it: for cell viability values: 24 hours, INS-1 cells, control 100±3.3%. The protocol: (§1) INS-1 cell strain from rat origin used in the studies was proliferated by performing routine passages once per week. The cells were grown under 1 atm pressure, in the incubator containing 5% CO2 and 95% air, in powder RPMI 1640 medium containing heat inactivated 10% fetal bovine serum (FBS) and antibiotics (100 unit/ml penicillin G100, 100 µg/ml streptomycin), 1% sodium pyruvate, hepes, sodium bicarbonate and beta-mercaptoethanol at 37 °C. The cells produced in 75 cm^2 sterile culture plate were used for the experiment when they covered 60-80% of the culture plate.
(§2) The cells to be used in the experiments were removed from the surface of culture plate where they stuck, when they cover 60-80% of the culture plate, by using trypsin. In order to prevent the effect of trypsin to cells whose removal was monitored under microscope, the medium with the equal amount as trypsin was added and the cell suspension was collected in the centrifuge tube and centrifuged in 1500 rpm for 5 minutes. The supernatant was removed after centrifuge, the medium was added to the cells remained in the bottom part of the tube and pipetted in order to form single cell suspension. The total amount of cells was calculated by using hemocytometer. 50 000 INS-1 beta cells taken from 100% viable single cell suspension, whose cell amount was calculated, were cultured to each of the culture plates with 96 wells. The cultured cells were incubated at 37 °C for 24 hours in order to provide the sticking to the surface of culture plate and growing. After 24 of incubation, the cells were treated with 0.25 mM, 0.5 mM, 0.75 mM, 1 mM, 1.25 mM, 1.5 mM, 1.75 mM, 2 mM, 2.5 mM, 2.75 mM, 3 mM, 3.25 mM, 3.5 mM, 3.75 mM,4 mM, 4.25 mM, 4.5 mM, 4.75 mM, 5 mM palmitic acid which were the chosen doses for palmitic acid. 10 wells including the control group were used in the experiments and 24-hour experiment groups were formed for each of the concentrations.
(§3) After the removal of the grown cells by trypsin, culturing was performed to 96 wells in a way such that there would be 50 000 cells in 200 µl. The cultured cells were incubated at 37 °C for 24 hours in order to provide growing. After 24 h of incubation, the cells were treated with 1nM, 10nM, 100nM curaglutide which were the chosen doses. 10 wells including the control group were used in the experiments and 24-hour experiment groups have been formed for each of the concentrations.
(§4) MTT ([3-(4, 5-dimethyl tiazol-2-il)-2, 5 diphenyl tetrazolium bromide]) test is a drug sensitivity test based on cell culture principal, it aims to assess the cell growth and/or cell death in an indirect way. This frequently used test differs from the other testing methods, with the advantages that it is fast, sensitive, reproducible and easy to apply. The cracking of the tetrazolium ring of MTT paint by mitochondria in living cells underlies the basis of this method. This reaction is catalyzed by succinate dehydrogenase which is a mitochondrial enzyme. MTT is absorbed to cells actively and it is reduced to formazan which is non-soluble in water and has blue-purple color, by the reaction taking place in mitochondria. The MTT reducing properties of the cells are accepted as the cell viability criteria and they are directly proportionate to the paint density and living cell amount obtained by MTT analyze. While living cells with non-damaged mitochondria function are painted with purple color, cells that are dead or with damaged mitochondria function are not painted. Following bringing the formazan crystals formed by incubated living cells into soluble form, reaction product is read […].
(§5) 50 mg MTT (AppliChem A2231 0001) was weighed, it was dissolved by completing 10 ml with RPMI 1640 medium via vortex, with paying attention that there are no not-dissolved paint particles left, and they were obtained by filtering through 0.22 µm filter. It was used by preparing a fresh one each time. […]

The target in data set [2] is dipeptidyl peptidase IV (DPP-IV) (Homo sapiens, UniProt P27487). The note with it: proteolytic enzyme DPP-IV; cited from earlier work.
Chain of dipeptidyl peptidase IV (DPP-IV) (P27487 whole entry, species assumed): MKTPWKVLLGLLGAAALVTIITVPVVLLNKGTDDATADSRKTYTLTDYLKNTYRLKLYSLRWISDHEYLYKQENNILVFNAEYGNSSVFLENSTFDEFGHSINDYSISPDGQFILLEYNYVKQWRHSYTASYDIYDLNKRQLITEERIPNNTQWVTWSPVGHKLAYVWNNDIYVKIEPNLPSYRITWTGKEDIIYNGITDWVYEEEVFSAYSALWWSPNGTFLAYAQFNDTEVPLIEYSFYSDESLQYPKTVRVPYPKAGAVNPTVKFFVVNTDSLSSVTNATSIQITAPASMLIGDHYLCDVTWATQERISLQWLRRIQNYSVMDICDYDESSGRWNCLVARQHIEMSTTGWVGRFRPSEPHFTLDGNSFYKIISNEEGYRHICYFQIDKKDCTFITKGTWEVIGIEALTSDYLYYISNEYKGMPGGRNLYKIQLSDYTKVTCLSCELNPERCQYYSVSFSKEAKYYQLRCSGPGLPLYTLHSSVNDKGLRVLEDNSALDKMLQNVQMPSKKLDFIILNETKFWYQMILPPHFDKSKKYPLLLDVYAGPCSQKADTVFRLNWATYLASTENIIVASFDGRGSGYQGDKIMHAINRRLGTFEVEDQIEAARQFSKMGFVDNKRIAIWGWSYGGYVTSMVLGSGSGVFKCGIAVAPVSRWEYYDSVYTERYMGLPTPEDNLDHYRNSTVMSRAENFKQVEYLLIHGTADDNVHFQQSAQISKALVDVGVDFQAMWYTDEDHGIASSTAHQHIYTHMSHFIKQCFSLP
Data set [3] concerns INS-1 cells. The experiment in a line: Cell viability by MTT test. The data set is classed as cell-based, rat. The note with it: 2 mM palmitic acid, repetitive experiments. On the procedure:
as §1
as §2, with “[…],” for “2 mM, 2.5 mM,”
as §3, §4, §5

Data set [4] can be described thus: Cell viability by MTT test. The data set is classed as cell-based, rat. The note with it: rat, 24 h, INS-1 cells, control 100%. On the procedure:
as §1
as §2, with “[…],” for “2 mM, 2.5 mM,”
as §3, §4, §5

For the compound `CC[C@H](C)[C@H](NC(=O)[C@H](Cc1ccccc1)NC(=O)[C@H](CCC(=O)O)NC(=O)[C@H](CCCCN)NC(=O)[C@H](C)NC(=O)[C@H](C)NC(=O)[C@H](CCC(N)=O)NC(=O)CNC(=O)[C@H](CCC(=O)O)NC(=O)[C@H](CC(C)C)NC(=O)[C@H](Cc1ccc(O)cc1)NC(=O)[C@H](CO)NC(=O)[C@H](CO)NC(=O)[C@@H](NC(=O)[C@H](CC(=O)O)NC(=O)[C@H](CO)NC(=O)[C@@H](NC(=O)[C@H](Cc1ccccc1)NC(=O)[C@@H](NC(=O)CNC(=O)[C@H](CCC(=O)O)NC(=O)[C@H](C)NC(=O)[C@H](Cc1c[nH]cn1)NC(C)=O)[C@@H](C)O)[C@@H](C)O)C(C)C)C(=O)N[C@@H](C)C(=O)N[C@@H](Cc1c[nH]c2ccccc12)C(=O)N[C@@H](CC(C)C)C(=O)N[C@H](C(=O)N[C@@H](CCCCN)C(N)=O)C(C)C` [curaglutide], the cell viability values in data set [1] (1 nM curaglutide alone) is listed as 104.50±3.70%; in data set [1] (10 nM curaglutide alone) it was 121.80±7.30%; in data set [1] (100 nM curaglutide alone), 115.20±3.30%. Moreover, the “% cell viability values” worked out at 78.3±1.6% in data set [1] (10 nM curaglutide as curative agent (24 h after 24 h palmitic acid) for 1.75 mM palmitic acid (autophagic dose)); 60.9±4.3% in data set [1] (10 nM curaglutide as curative agent for 2 mM palmitic acid (apoptotic dose)); 56.5±1.7% in data set [1] (10 nM curaglutide as curative agent for 3 mM palmitic acid (necrotic dose)); 46.6±5.8% in data set [1] (10 nM curaglutide as curative agent for 4 mM palmitic acid); 56.4±4.7% in data set [1] (10 nM curaglutide as protective against 3 mM palmitic acid (necrotic dose)); 129.9±4.6% in data set [1] (10 nM curaglutide as protector (24 h pre-treatment, then with palmitic acid 24 h) against 1.75 mM palmitic acid (autophagic dose)). Further, the “% cell viability values” is on record as 103.9±0.6% in data set [1] (10 nM curaglutide as protector against 2 mM palmitic acid (apoptotic dose)) and 52.2±4.6% in data set [1] (10 nM curaglutide as protector against 4 mM palmitic acid). Further, the “destruction by DPP-IV” value in data set [2] is “resistant to destruction by DPP-IV”.
`CCCCCCCCCCCCCCCC(=O)O` [palmitic acid]: the cell death in data set [3] is recorded as 50%. This compound had a viability at 24 h, 0.25 mM in data set [4] (0.25 mM palmitic acid) of 92 ± 2.4%. In data set [4] (0.5 mM palmitic acid), this compound showed a viability at 24 h, 0.5 mM of 81.5 ± 7.6%. In addition, the viability at 24 h, 0.75 mM in data set [4] (0.75 mM palmitic acid) is 75.6 ± 4.37%. Further, the viability at 24 h, 1 mM in data set [4] (1 mM palmitic acid) stood at 74.8 ± 2.35%. This compound registered a viability at 24 h, 1.25 mM in data set [4] (1.25 mM palmitic acid) of 72.7 ± 7.7%. In data set [4] (1.5 mM palmitic acid), the viability at 24 h, 1.5 mM worked out at 69.9 ± 7.4%. In data set [4] (1.75 mM palmitic acid (autophagic dose)), the viability at 24 h, 1.75 mM amounted to 60.6 ± 11.6%. In data set [4] (2 mM palmitic acid (apoptotic dose)), this compound yielded a viability at 24 h, 2 mM of 50.1 ± 11%. In data set [4] (2.25 mM palmitic acid), this compound had a viability at 24 h, 2.25 mM of 58.4 ± 11.5%. This compound also returned a viability at 24 h, 2.5 mM in data set [4] (2.5 mM palmitic acid) of 49.9 ± 3%. Besides, the viability at 24 h, 2.75 mM in data set [4] (2.75 mM palmitic acid) is 62.9 ± 4.3%. Further, the viability at 24 h, 3 mM in data set [4] (3 mM palmitic acid (necrotic dose)) stood at 36.5 ± 3.3%. This compound came in with a viability at 24 h, 3.25 mM in data set [4] (3.25 mM palmitic acid) of 44.1 ± 8.7%. The viability at 24 h, 3.5 mM in data set [4] (3.5 mM palmitic acid) was determined as 39.4 ± 11.4%. The same compound returned a viability at 24 h, 3.75 mM in data set [4] (3.75 mM palmitic acid) of 42.9 ± 8.2%. Further, the viability at 24 h, 4 mM in data set [4] (4 mM palmitic acid (necrotic dose)) was 41 ± 6.6%. In data set [4] (4.25 mM palmitic acid), this compound gave a viability at 24 h, 4.25 mM of 44.9 ± 11.8%. In addition, the viability at 24 h, 4.5 mM in data set [4] (4.5 mM palmitic acid) came out at 37.3 ± 10.5%. The viability at 24 h, 4.75 mM in data set [4] (4.75 mM palmitic acid) stood at 35.7 ± 3.7%. The same compound gave a viability at 24 h, 5 mM in data set [4] (5 mM palmitic acid) of 42.1 ± 4.4%.
